In US10336733B2, “Aryl acylsulfonamides as BLT1 antagonists” (Merck Sharp & Dohme Corp., priority 2015, dated 2019):

Target: human BLT1 receptor (Homo sapiens (Human), UniProt Q15722)
Test: BLT-1 cAMP Assay
Assay type: cell-based
Conditions: antagonist mode; HEK293 cells recombinantly expressing human BLT1 receptor; forskolin 4 μM and LTB4 2 nM; cAMP detection
Protocol: The ability of compounds to antagonize the human BLT1 receptor was determined using a kit to measure changes in intracellular cyclic AMP levels (cAMP dynamic assay kit, Cisbio Cat. No. 62AM4PEC). HEK293 cells recombinantly expressing human BLT1 receptor, previously frozen in Recovery Medium (Life Technologies, Cat. No. 12648-010) were thawed and diluted into assay medium (HBSS (Hyclone SH 30268.01), 20 mM HEPES (Gibco 15630-106), 800 μM IBMX (Sigma I5879), 0.1% DTPA BSA (Perkin Elmer CR84-100)). The cell suspension was centrifuged at 200×g for 10 min and then resuspended in fresh assay medium to a density of 2.5×10^5 cells/mL. A Labcyte Echo 550 acoustic dispenser was used to transfer 25 nL of test compound dissolved in DMSO into the wells of a dry 384-well plate (Greiner 784075). All subsequent liquid additions were performed using a BIORAPTR (FRD; Beckman Coulter). Next, 5 μL of cell suspension was added and incubated for 20 min. at 37° C. and 5% CO2 in a humidified plastic tray. To test for agonist activity […] of assay buffer containing forskolin (Sigma F-6886. 4 μM for BLT1) was added and incubated for 30 minutes at 37° C. and 5% CO2 in a humidified plastic tray. To test for antagonist activity 5 μL of assay buffer containing forskolin (Sigma F-6886. 4 μM for BLT1) and either LTB4 (Sigma Aldrich L0517; 2 nM BLT1) was added and incubated for 30 minutes at 37° C. and 5% CO2 in a humidified plastic tray.
The levels of cAMP were detected using the CisBio kit following the manufacturer's instructions: cAMP-d2 vial was reconstituted with distilled water and then diluted accordingly with conjugate & lysis buffer. 5 μL of cAMP-d2 working solution was added to all of the wells of the assay plate. cAMP-Cryptate vial was reconstituted with distilled water and then diluted accordingly with conjugate & lysis buffer. 5 μL of cAMP-Cryptate working solution were added to the assay plate. The assay plate was shaken for 3 minutes and incubated at room temperature for 45 minutes, then read on Perkin Elmer Envision. cAMP standard curve and fit data were plotted using a 4 parameter dose response curve fitting algorithm to fit curve. A 4-parameter curve fit (Max, min, log EC50 and slope) was used to transform fluorescent 665 nm/615 nm ratio signal to cAMP concentration. After normalization to treated and untreated controls, the percent effect of signal at each compound concentration was calculated. The plot of percent effect versus the log of compound concentration was fit with a 4-parameter concentration response equation to calculate EC50 values. Compound concentrations tested were 10 000, 3 333, 1 111, 370.4, 123.4, 41.2, 13.7, 4.6, 1.5 and 0.5 nM with 0.25% residual DMSO.

Sequence of human BLT1 receptor (Q15722 whole entry): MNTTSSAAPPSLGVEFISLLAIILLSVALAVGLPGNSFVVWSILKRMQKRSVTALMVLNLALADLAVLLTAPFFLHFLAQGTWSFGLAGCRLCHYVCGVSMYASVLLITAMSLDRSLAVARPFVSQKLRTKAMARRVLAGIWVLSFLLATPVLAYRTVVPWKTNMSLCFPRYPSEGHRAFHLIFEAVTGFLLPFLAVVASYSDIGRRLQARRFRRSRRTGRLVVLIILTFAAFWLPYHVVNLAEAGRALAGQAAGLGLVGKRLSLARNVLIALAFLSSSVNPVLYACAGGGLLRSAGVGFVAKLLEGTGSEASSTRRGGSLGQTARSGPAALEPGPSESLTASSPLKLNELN

CC(C)(C)CS(=O)(=O)NC(=O)c1ccccc1-c1ccc2c(c1)OCC(Cc1ccccn1)C2O (stereo not drawn) [Example 20, 2-((3,4-trans)-4-Hydroxy-3-(pyridin-2-ylmethyl)chroman-7-yl)-N-(neopentylsulfonyl)benzamide] gave an EC50 of 44 nM.
Cc1nnc(C[C@@H]2COc3cc(-c4ccccc4C(=O)NS(=O)(=O)C4(C)CC4)ccc3[C@H]2O)s1 (racemic) [Example 29, 2-((Rac-trans)-4-Hydroxy-3-((5-methyl-1,3,4-thiadiazol-2-yl)methyl)chroman-7-yl)-N-((1-methylcyclopropyl)sulfonyl)benzamide] showed an EC50 of 740 nM.
O=C(NS(=O)(=O)C1CC1)c1ccccc1-c1ccc2c(c1)OC[C@@H](Cc1ccccc1)[C@@H]2O (single isomer, unassigned) [Example 23, 2-((3R,4S or 3S,4R)-3-Benzyl-4-hydroxychroman-7-yl)-N-(cyclopropylsulfonyl)benzamide] showed an EC50 of 2820 nM.
Compound CCn1nccc1C[C@@H]1COc2cc(-c3ccccc3C(=O)NS(=O)(=O)C(C)(C)C)ccc2[C@H]1O (single isomer, unassigned) [Example 38, N-(tert-Butylsulfonyl)-2-((3R,4S or 3S,4R)-3-((1-ethyl-1H-pyrazol-5-yl)methyl)-4-hydroxychroman-7-yl)benzamide] has an EC50 of 1160 nM.
In the case of O=C(NS(=O)(=O)C(F)(F)F)c1ccc(F)cc1-c1ccc2c(c1)OC[C@@H](Cc1ccccn1)[C@@H]2O (single isomer, unassigned) [Example 1, 4-Fluoro-2-((3R,4S or 3S,4R)-4-hydroxy-3-(pyridin-2-ylmethyl)chroman-7-yl)-N-((trifluoromethyl)sulfonyl)benzamide], the EC50 is reported as 650 nM.
O=C(NS(=O)(=O)C(F)(F)F)c1ccc(F)cc1-c1ccc2c(c1)OC[C@H](Cc1ccc(-c3ccccc3)cc1)[C@H]2O (racemic) [Example 40, 2-((Rac-trans)-3-([1,1′-Biphenyl]-4-ylmethyl)-4-hydroxychroman-7-yl)-4-fluoro-N-((trifluoromethyl)sulfonyl)benzamide] showed an EC50 of 9 nM.
Compound C[C@H](c1ccccn1)C1COc2cc(-c3ccccc3C(=O)NS(=O)(=O)C3(C)CC3)ccc2C1O (stereo in doubt) [Example 50, 2-((3,4-trans)-4-Hydroxy-3-((S)-1-(pyridin-2-yl)ethyl)chroman-7-yl)-N-((1-methylcyclopropyl)sulfonyl)benzamide] has an EC50 of 67 nM.
CCn1nccc1C[C@@H]1COc2cc(-c3ccccc3C(=O)NS(=O)(=O)C(C)(C)C)ccc2[C@H]1O (racemic) [Example 36, N-(tert-Butylsulfonyl)-2-((rac-trans)-3-((1-ethyl-1H-pyrazol-5-yl)methyl)-4-hydroxychroman-7-yl)benzamide] showed an EC50 of 81 nM.
With Cn1nccc1C[C@@H]1COc2cc(-c3ccccc3C(=O)NS(=O)(=O)C3(C)CC3)ccc2[C@H]1O (racemic) [Example 28, 2-(Rac-trans)-4-Hydroxy-3-((1-methyl-1H-pyrazol-5-yl)methyl)chroman-7-yl)-N-((1-methylcyclopropyl)sulfonyl)benzamide] the EC50 was 360 nM.
CCn1nccc1C[C@H]1COc2cc(-c3ccccc3C(=O)NS(=O)(=O)C(C)(C)C)ccc2[C@@H]1O (single isomer, unassigned) [Example 37, N-(tert-Butylsulfonyl)-2-((3S,4R or 3R,4S)-3-((1-ethyl-1H-pyrazol-5-yl)methyl)-4-hydroxychroman-7-yl)benzamide] gave an EC50 of 36 nM.
For CC1(S(=O)(=O)NC(=O)c2ccccc2-c2ccc3c(c2)OC[C@H](Cc2cscn2)[C@H]3O)CC1 (single isomer, unassigned) [Example 27, 2-((3S, 4R or 3R,4S)-4-hydroxy-3-(thiazol-4-ylmethyl)chroman-7-yl)-N-((1-methylcyclopropyl)sulfonyl)benzamide], the EC50 was 26 nM.
CC1(S(=O)(=O)NC(=O)c2ccccc2-c2ccc3c(c2)OCC(Cc2coc(-c4ccccc4)n2)C3O)CC1 (racemic) [Example 46, 2-(Rac-trans)-4-Hydroxy-3-((2-phenyloxazol-4-yl)methyl)chroman-7-yl)-N-((1-methylcyclopropyl)sulfonyl)benzamide] gave an EC50 of 15 nM.
Compound CC(C)(C)S(=O)(=O)NC(=O)c1ccccc1-c1ccc2c(c1)OC[C@@H](Cc1cscn1)[C@@H]2O (single isomer, unassigned) [Example 33, N-(tert-Butylsulfonyl)-2-((3R,4S or 3S,4R)-4-hydroxy-3-(thiazol-4-ylmethyl)chroman-7-yl)benzamide] has an EC50 of 808 nM.
Compound CC1(S(=O)(=O)NC(=O)c2ccccc2-c2ccc3c(c2)OC[C@H](Cc2cscn2)[C@H]3O)CC1 (racemic) [Example 25, 2-(Rac-trans)-4-Hydroxy-3-(thiazol-4-ylmethyl)chroman-7-yl)-N-((1-methylcyclopropyl)sulfonyl)benzamide] has an EC50 of 16 nM.
CC(C)(C)S(=O)(=O)NC(=O)c1ccccc1-c1ccc2c(c1)OC[C@@H](Cc1ccccn1)[C@@H]2O (single isomer, unassigned) [Example 11, N-(tert-Butylsulfonyl)-2-((3R,4S or 3S,4R)-4-hydroxy-3-(pyridin-2-ylmethyl)chroman-7-yl)benzamide] gave an EC50 of 144 nM.
In the case of C[C@@H](c1ccccn1)C1COc2cc(-c3ccccc3C(=O)NS(=O)(=O)C3(C)CC3)ccc2C1O (stereo in doubt) [Example 49, 2-((3,4-trans)-4-Hydroxy-3-((R)-1-(pyridin-2-yl)ethyl)chroman-7-yl)-N-((1-methylcyclopropyl)sulfonyl)benzamide], the EC50 is reported as 154 nM.
Work on O=C(NS(=O)(=O)C1CC1)c1ccccc1-c1ccc2c(c1)OC[C@H](Cc1ccccn1)[C@H]2O (single isomer, unassigned) [Example 6, N-(Cyclopropylsulfonyl)-2-((3S,4R or 3R,4S)-4-hydroxy-3-(pyridin-2-ylmethyl)chroman-7-yl)benzamide] yielded an EC50 of 28 nM.
CC1(S(=O)(=O)NC(=O)c2ccc(F)cc2-c2ccc3c(c2)OC[C@H](Cc2ccccn2)[C@H]3O)CC1 (single isomer, unassigned) [Example 9, 4-Fluoro-2-((3S,4R or 3R,4S)-4-hydroxy-3-(pyridin-2-ylmethyl)chroman-7-yl)-N-((1-methylcyclopropyl)sulfonyl)benzamide] was tested, and the EC50 was 4 nM.
In the case of CC(C)(C)S(=O)(=O)NC(=O)c1ccccc1-c1ccc2c(c1)OC[C@H](Cc1cscn1)[C@H]2O (single isomer, unassigned) [Example 34, N-(tert-Butylsulfonyl)-2-((3S,4R or 3R,4S)-4-hydroxy-3-(thiazol-4-ylmethyl)chroman-7-yl)benzamide], the EC50 is reported as 9 nM.
For Cn1nccc1C[C@@H]1COc2cc(-c3ccccc3C(=O)NS(=O)(=O)C(C)(C)C)ccc2[C@H]1O (racemic) [Example 35, N-(tert-Butylsulfonyl)-2-((rac-trans)-4-hydroxy-3-((1-methyl-1H-pyrazol-5-yl)methyl)chroman-7-yl)benzamide], the EC50 was 95 nM.
CC1(S(=O)(=O)NC(=O)c2ccccc2-c2ccc3c(c2)OC[C@@H](Cc2cscn2)[C@@H]3O)CC1 (single isomer, unassigned) [Example 26, 2-((3R, 4S or 3S, 4R)-4-Hydroxy-3-(thiazol-4-ylmethyl)chroman-7-yl)-N-((1-methylcyclopropyl)sulfonyl)benzamide] showed an EC50 of 770 nM.
CC(C)CS(=O)(=O)NC(=O)c1ccccc1-c1ccc2c(c1)OCC(Cc1ccccn1)C2O (stereo not drawn) [Example 17, 2-((3,4-trans)-4-Hydroxy-3-(pyridin-2-ylmethyl)chroman-7-yl)-N-(isobutylsulfonyl)benzamide] showed an EC50 of 24 nM.
CC(C)(C)S(=O)(=O)NC(=O)c1ccccc1-c1ccc2c(c1)OC[C@@H](Cc1coc(-c3ccccc3)n1)[C@@H]2O (single isomer, unassigned) [Example 47, N-(tert-Butylsulfonyl)-2-((3R,4S or 3S,4R)-4-hydroxy-3-((2-phenyloxazol-4-yl)methyl)chroman-7-yl)benzamide] gave an EC50 of 75 nM.
For CC1(S(=O)(=O)NC(=O)c2ccccc2-c2ccc3c(c2)OC[C@@H](Cc2ccccn2)[C@@H]3O)CC1 (single isomer, unassigned) [Example 7, 2-((3R,4S or 3S,4R)-4-Hydroxy-3-(pyridin-2-ylmethyl)chroman-7-yl)-N-((1-methylcyclopropyl)sulfonyl)benzamide], the EC50 was 1270 nM.
